The subject of experiment [1] is SARS-CoV2 in VERO E6 cells. Put plainly: SARS-CoV2 plaque assay in VERO E6 cells. In kind it is cell-based. The settings on record: 25 μM pre-incubation 30 mins; compared to control; KEPTIDE1 at 1:20 dilution dose.
In experiment [2] the target is T1, interaction between S-glycoprotein and ACE-2 protein (Homo sapiens, UniProt Q9BYF1).
T1 construct: purchased
Nature of the experiment: kit-based luminometric inhibitor screen assay. In kind it is biochemical, SARS-CoV2. From the text: A kit-based luminometric inhibitor screen assay was used to evaluate the efficacy of the biotinylated and FITC labeled ACIS in inhibiting the interaction between S-glycoprotein and ACE-2 protein.

Experiment [3] addresses T2, ACE-2 (Homo sapiens, UniProt Q9BYF1). Put plainly: fluorescence polarization (FP) assay. The settings on record: FITC tag at C-terminal end (FIG. 3C). In kind it is binding. (In general: Fluorescence polarisation rises when a labelled molecule tumbles more slowly, as on binding a larger partner.)
The target of experiment [4] is T2, ACE-2. Nature of the experiment: surface plasmon resonance (SPR). Particulars: different concentrations of ACIS as analyte; hyperbolic binding curve.
Experiment [5] relates to SARS-CoV2 (SARS CoV-2 USA_WA1/2020) in VERO cells. Nature of the experiment: Cytopathic effect (agar monolayer invasion) test of supernatants of treated VERO cells. In kind it is cell-based.
For experiment [6], the system named is SARS-CoV2 in VERO E6 cells. Put plainly: dual immunostaining of ACIS peptide and S-glycoprotein in infected VERO cells. In kind it is cell-based. Particulars: 25 μM. The protocol: Further confirming the profound activity of KEPTIDE COVIDs in the attenuation of viral infection, a dual immunostaining analyses with ACIS peptide (green) and S-glycoprotein (red) was performed. DAPI staining was carried out to identify big nuclei of VERO cells. […] The result was further corroborated with a quantification study that clearly indicated a strong inhibition of viral load around ACIS-treated VERO cells (***p<0.0001) (FIG. 6B).
In order to evaluate the efficacy of the KEPTIDE COVID in suppressing the secondary or chronic infection of SARS-COV2, testing was performed by dual immunostaining procedure after six hours of viral infection. […] The effect was further confirmed with a quantitative analysis (FIG. 7B).
Double Immunocytochemistry analyses was performed where […] VERO Cells were plated per well in 8-well chamber slide. Cells were starved with serum-free DMEM media for 30 mins followed by the treatment with 25 μM FITC-labeled KEPTIDE COVID. After another 30 mins, unbound KEPTIDE COVIDs were aspirated and then added SARS-CoV2 at a dose of 1-2 PFU/cell. After 2 and 6 hours of virus treatment, viral cells were removed, VERO cells were fixed with 8% PFA and kept at 4° C. for overnight. […]

Experiment [7] deals with full-length ACE-2 protein (Homo sapiens, UniProt Q9BYF1). Nature of the experiment: BLItz label-free bio-layer interferometry assay. In kind it is binding. The protocol:
The ACIS peptide is specifically designed from the part of S-glycoprotein that is conserved only in the coronaviral family. Because of this specificity there is no possibility of any off-target effect. […] Blitz assay was used to confirm the specificity of ACIS peptide towards ACE-2 protein.
The experiment was performed based on manufacturer's instructions. Briefly, biotinylated ACIS peptide was bound to the BLItz streptavidin-linked biosensor. Different doses of ACE-2 enzyme were then charged to the ACIS peptide and then washed.
To further characterize the binding between ACIS and ACE-2, BLItz label-free bio-layer interferometry assay was performed. ACIS (0.25 μg/μL) was loaded to the sensor and titrated with different concentration of ACE-2 protein starting with the concentration as low as 10 nM. […] BLItz sensor was loaded with ACIS peptide (0.25 μg/μL) followed by titration with different concentrations of ACE-2 enzyme starting from nM range.
This can prevent or inhibit the infection of a host cell by SARS-CoV2 virus.
(In BLI a coated tip is dipped into the sample, and binding shifts an interference pattern.)

What is called Kd is the concentration at which binding is half-saturated. A higher Kd goes with weaker binding.

T2 sequence (Q9BYF1 18-805): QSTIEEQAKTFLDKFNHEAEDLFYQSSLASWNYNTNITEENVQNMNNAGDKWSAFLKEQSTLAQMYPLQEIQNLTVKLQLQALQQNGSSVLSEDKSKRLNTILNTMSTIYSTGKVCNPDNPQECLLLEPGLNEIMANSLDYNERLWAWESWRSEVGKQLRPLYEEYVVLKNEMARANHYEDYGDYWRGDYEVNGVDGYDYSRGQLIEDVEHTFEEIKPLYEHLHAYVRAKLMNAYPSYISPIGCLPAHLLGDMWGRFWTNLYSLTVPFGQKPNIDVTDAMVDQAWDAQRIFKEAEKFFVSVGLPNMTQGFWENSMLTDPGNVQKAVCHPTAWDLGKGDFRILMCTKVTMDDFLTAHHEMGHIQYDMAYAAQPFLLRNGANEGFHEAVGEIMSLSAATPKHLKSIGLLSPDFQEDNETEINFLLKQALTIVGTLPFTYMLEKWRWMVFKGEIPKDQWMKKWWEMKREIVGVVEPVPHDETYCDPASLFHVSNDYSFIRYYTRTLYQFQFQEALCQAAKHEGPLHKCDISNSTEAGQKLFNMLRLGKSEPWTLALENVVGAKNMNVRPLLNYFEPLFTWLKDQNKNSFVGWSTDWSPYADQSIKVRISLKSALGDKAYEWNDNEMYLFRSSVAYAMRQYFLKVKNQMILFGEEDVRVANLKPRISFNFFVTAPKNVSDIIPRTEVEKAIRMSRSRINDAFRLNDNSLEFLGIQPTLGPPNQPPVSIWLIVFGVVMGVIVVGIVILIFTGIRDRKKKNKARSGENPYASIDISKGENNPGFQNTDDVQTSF
full-length ACE-2 protein, sequence (Q9BYF1 18-805): as above
T1 sequence (Q9BYF1 18-740): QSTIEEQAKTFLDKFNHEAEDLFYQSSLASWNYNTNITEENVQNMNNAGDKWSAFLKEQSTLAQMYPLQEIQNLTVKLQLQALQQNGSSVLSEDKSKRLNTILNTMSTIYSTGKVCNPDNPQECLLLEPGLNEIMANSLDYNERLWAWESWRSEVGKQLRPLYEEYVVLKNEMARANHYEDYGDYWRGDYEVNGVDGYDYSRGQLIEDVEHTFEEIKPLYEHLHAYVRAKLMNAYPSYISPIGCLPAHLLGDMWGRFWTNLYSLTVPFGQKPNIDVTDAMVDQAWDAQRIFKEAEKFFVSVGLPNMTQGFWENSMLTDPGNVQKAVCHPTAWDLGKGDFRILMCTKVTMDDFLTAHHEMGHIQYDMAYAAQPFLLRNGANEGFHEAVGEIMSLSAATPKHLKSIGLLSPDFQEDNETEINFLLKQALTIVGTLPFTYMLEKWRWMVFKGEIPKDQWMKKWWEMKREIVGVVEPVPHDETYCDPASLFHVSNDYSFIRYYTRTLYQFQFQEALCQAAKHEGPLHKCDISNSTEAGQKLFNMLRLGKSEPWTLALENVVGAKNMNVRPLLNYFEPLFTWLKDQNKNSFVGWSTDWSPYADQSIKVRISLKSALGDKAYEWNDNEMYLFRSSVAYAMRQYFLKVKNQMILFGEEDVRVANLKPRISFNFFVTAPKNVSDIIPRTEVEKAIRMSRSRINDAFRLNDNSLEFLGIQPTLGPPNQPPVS

Take `CC(C)[C@H](NC(=O)CNC(=O)[C@H](CC(N)=O)NC(=O)[C@@H](NC(=O)[C@@H]1CCCN1C(=O)[C@H](CCC(N)=O)NC(=O)[C@@H](N)Cc1ccccc1)[C@@H](C)O)C(=O)NCC(=O)N[C@@H](Cc1ccc(O)cc1)C(=O)N[C@@H](CCC(N)=O)C(=O)N1CCC[C@H]1C(=O)N[C@@H](Cc1ccc(O)cc1)C(=O)NCC(=O)N[C@@H](CCCCNC(=S)Nc1ccc2c(c1)C(=O)OC21c2ccc(O)cc2Oc2cc(O)ccc21)C(=O)O` [KEPTIDE2]: the “increase in protection, densitometric quantification of plaque assay” value in experiment [1] is given as “three-fold increase in protection”. Further, the “hillslope of the inhibition plot” value in experiment [2] is recorded as −2.4. Moreover, at ACE-2 [3], the “concentration at which peptide binds with ACE-2” value turned out to be 6.376 nM.

For `CC(C)[C@H](NC(=O)CNC(=O)[C@H](CC(N)=O)NC(=O)[C@@H](NC(=O)[C@@H]1CCCN1C(=O)[C@H](CCC(N)=O)NC(=O)[C@@H](N)Cc1ccccc1)[C@@H](C)O)C(=O)NCC(=O)N[C@@H](Cc1ccc(O)cc1)C(=O)N[C@@H](CCC(N)=O)C(=O)N1CCC[C@H]1C(=O)N[C@@H](Cc1ccc(O)cc1)C(=O)NCC(=O)O` [ACIS peptide, FQPTNGVGYQPYG], at ACE-2 [4], the “interaction with ACE-2 enzyme (binding curve)” value is on record as “strong interaction with ACE-2 enzyme”. Besides, the “damage of agar monolayer (loss of CV staining) by viral supernatants of treated VERO cells” value in experiment [5] is reported as “significant damage in agar monolayer”. The “inhibition of viral particles, secondary or chronic infection” value in experiment [6] (6 hours of infection) is “continued to repel viral particles significantly from VERO cells”. In addition, in experiment [6] (two hours of SARS-CoV2 treatment (1-2 PFU)), the “inhibition of entry of viral particles, acute infection” value is “substantially inhibit the entry of viral particles”. Besides, in experiment [7], the Kd is 115 nM. Moreover, the “minimum concentration with dose-dependent binding” value in experiment [7] (sensor loaded with ACIS 0.25 μg/μL, titrated with ACE-2) is 13 nM.
